Measured values published in ChEMBL document CHEMBL6092180 (Eur J Med Chem, 2024).
Converted amounts (≈) assume the structure as drawn.

Legend:
Assay type in all cases: functional
Candida parapsilosis = experiment: Antifungal activity against Candida parapsilosis GIM 2.190 assessed as inhibition of fungal growth by CLSI M27-A3 guidelines based method; conditions: Lodderomyces parapsilosis
Candida albicans [1] = experiment: Antifungal activity against Candida albicans SC5314 assessed as inhibition of fungal growth by CLSI M27-A3 guidelines based method
Candida albicans [2] = experiment: Antifungal activity against fluconazole-resistant Candida albicans clinical isolate 904 assessed as inhibition of fungal growth by CLSI M27-A3 guidelines based method
Nakaseomyces glabratus = experiment: Antifungal activity against Candida glabrata assessed as inhibition of fungal growth by CLSI M27-A3 guidelines based method
Candida albicans [3] = experiment: Antifungal activity against fluconazole-resistant Candida albicans clinical isolate 100 assessed as inhibition of fungal growth by CLSI M27-A3 guidelines based method
Candida albicans [4] = experiment: Antifungal activity against fluconazole-resistant Candida albicans clinical isolate 632 assessed as inhibition of fungal growth by CLSI M27-A3 guidelines based method
Candida albicans [5] = experiment: Antifungal activity against fluconazole-resistant Candida albicans clinical isolate 311 assessed as inhibition of fungal growth by CLSI M27-A3 guidelines based method
Candida albicans [6] = experiment: Antifungal activity against fluconazole-resistant Candida albicans clinical isolate 103 assessed as inhibition of fungal growth by CLSI M27-A3 guidelines based method
Pichia kudriavzevii = experiment: Antifungal activity against Candida krusei GIM 2.1 assessed as inhibition of fungal growth by CLSI M27-A3 guidelines based method
Candida albicans [7] = experiment: Antifungal activity against fluconazole-resistant Candida albicans clinical isolate 901 assessed as inhibition of fungal growth by CLSI M27-A3 guidelines based method
Candida tropicalis = experiment: Antifungal activity against Candida tropicalis GIM 2.183 assessed as inhibition of fungal growth by CLSI M27-A3 guidelines based method
Candida albicans [8] = experiment: Antifungal activity against Candida albicans GIM 2.194 assessed as inhibition of fungal growth by CLSI M27-A3 guidelines based method
Cryptococcus neoformans = experiment: Antifungal activity against Cryptococcus neoformans CGMCC 2.3161 assessed as inhibition of fungal growth by CLSI M27-A3 guidelines based method
Candida albicans [9] = experiment: Antifungal activity against fluconazole-resistant Candida albicans CaR assessed as inhibition of fungal growth by CLSI M27-A3 guidelines based method
Aspergillus fumigatus = experiment: Antifungal activity against Aspergillus fumigatus cgmcc 3.7795 assessed as inhibition of fungal growth by CLSI M27-A3 guidelines based method
Candida albicans [10] = experiment: Antifungal activity against fluconazole and iodiconazole resistant Candida albicans clinical isolate 17# assessed as inhibition of fungal growth by CLSI M27-A3 guidelines based method

Structure (SMILES)	MIC80 (Candida parapsilosis) [ng/mL]	MIC80 (Candida albicans [1]) [µg/mL]	MIC80 (Nakaseomyces glabratus) [µg/mL]	MIC80 (Pichia kudriavzevii) [µg/mL]	MIC80 (Candida tropicalis) [ng/mL]	MIC80 (Candida albicans [8]) [µg/mL]	MIC80 (Cryptococcus neoformans) [µg/mL]	MIC80 (Candida albicans [2]) [µg/mL]	MIC80 (Candida albicans [3]) [µg/mL]	MIC80 (Candida albicans [4]) [µg/mL]	MIC80 (Candida albicans [5]) [µg/mL]	MIC80 (Candida albicans [6]) [µg/mL]	MIC80 (Candida albicans [7]) [µg/mL]	MIC80 (Candida albicans [9]) [µg/mL]	MIC80 (Aspergillus fumigatus) [µg/mL]	MIC80 (Candida albicans [10]) [µg/mL]
C[C@@H](N(C)Cc1ccc(C#Cc2ccc(I)cc2)cc1)[C@](O)(Cn1cncn1)c1ccc(F)cc1F	13 (≈ 0.0217 µM)	0.05 (≈ 0.0836 µM)	0.03 (≈ 0.0501 µM)	0.05 (≈ 0.0836 µM)	13 (≈ 0.0217 µM)	0.05 (≈ 0.0836 µM)	0.05 (≈ 0.0836 µM)	> 64	32 (≈ 53.5 µM)	16 (≈ 26.7 µM)	> 64	32 (≈ 53.5 µM)	16 (≈ 26.7 µM)	16 (≈ 26.7 µM)	0.2 (≈ 0.334 µM)	16 (≈ 26.7 µM)
C[C@@H](N(C)Cc1ccc(C#Cc2ccc(Br)cc2)cc1)[C@](O)(Cn1cncn1)c1ccc(F)cc1F	6 (≈ 0.0109 µM)	0.025 (≈ 0.0453 µM)	0.05 (≈ 0.0907 µM)	0.03 (≈ 0.0544 µM)	6 (≈ 0.0109 µM)	0.025 (≈ 0.0453 µM)	0.025 (≈ 0.0453 µM)	16 (≈ 29 µM)	8 (≈ 14.5 µM)	8 (≈ 14.5 µM)	> 64	8 (≈ 14.5 µM)	8 (≈ 14.5 µM)	0.25 (≈ 0.453 µM)	0.1 (≈ 0.181 µM)	0.5 (≈ 0.907 µM)
C[C@@H](N(C)Cc1ccc(C#Cc2ccc([N+](=O)[O-])cc2)cc1)[C@](O)(Cn1cncn1)c1ccc(F)cc1F	6 (≈ 0.0116 µM)	0.013 (≈ 0.0251 µM)	0.01 (≈ 0.0193 µM)	0.01 (≈ 0.0193 µM)	6 (≈ 0.0116 µM)	0.006 (≈ 0.0116 µM)	0.013 (≈ 0.0251 µM)	32 (≈ 61.8 µM)	16 (≈ 30.9 µM)	4 (≈ 7.73 µM)	16 (≈ 30.9 µM)	8 (≈ 15.5 µM)	8 (≈ 15.5 µM)	0.25 (≈ 0.483 µM)	0.05 (≈ 0.0966 µM)	0.5 (≈ 0.966 µM)
C[C@@H](N(C)Cc1ccc(C#Cc2cc(F)c(F)cc2F)cc1)[C@](O)(Cn1cncn1)c1ccc(F)cc1F	6 (≈ 0.0114 µM)	0.013 (≈ 0.0247 µM)	0.05 (≈ 0.095 µM)	0.05 (≈ 0.095 µM)	6 (≈ 0.0114 µM)	0.025 (≈ 0.0475 µM)	0.025 (≈ 0.0475 µM)	32 (≈ 60.8 µM)	8 (≈ 15.2 µM)	4 (≈ 7.6 µM)	16 (≈ 30.4 µM)	8 (≈ 15.2 µM)	8 (≈ 15.2 µM)	1 (≈ 1.9 µM)	0.2 (≈ 0.38 µM)	2 (≈ 3.8 µM)
C[C@@H](N(C)Cc1ccc(C#Cc2ccc(F)cc2)cc1)[C@](O)(Cn1cncn1)c1ccc(F)cc1F	6 (≈ 0.0122 µM)	0.025 (≈ 0.051 µM)	0.01 (≈ 0.0204 µM)	0.03 (≈ 0.0612 µM)	6 (≈ 0.0122 µM)	0.025 (≈ 0.051 µM)	0.013 (≈ 0.0265 µM)	16 (≈ 32.6 µM)	4 (≈ 8.15 µM)	4 (≈ 8.15 µM)	16 (≈ 32.6 µM)	8 (≈ 16.3 µM)	4 (≈ 8.15 µM)	0.25 (≈ 0.51 µM)	0.1 (≈ 0.204 µM)	0.25 (≈ 0.51 µM)
Cc1ccc(C#Cc2ccc(CN(C)[C@H](C)[C@](O)(Cn3cncn3)c3ccc(F)cc3F)cc2)cc1	6 (≈ 0.0123 µM)	0.025 (≈ 0.0514 µM)	0.01 (≈ 0.0206 µM)	0.03 (≈ 0.0617 µM)	6 (≈ 0.0123 µM)	0.013 (≈ 0.0267 µM)	0.025 (≈ 0.0514 µM)	32 (≈ 65.8 µM)	8 (≈ 16.4 µM)	4 (≈ 8.22 µM)	32 (≈ 65.8 µM)	16 (≈ 32.9 µM)	8 (≈ 16.4 µM)	0.25 (≈ 0.514 µM)	0.1 (≈ 0.206 µM)	0.5 (≈ 1.03 µM)
C[C@@H](N(C)Cc1ccc(C#Cc2ccc(Cl)cc2)cc1)[C@](O)(Cn1cncn1)c1ccc(F)cc1F	6 (≈ 0.0118 µM)	0.025 (≈ 0.0493 µM)	0.03 (≈ 0.0592 µM)	0.01 (≈ 0.0197 µM)	6 (≈ 0.0118 µM)	0.025 (≈ 0.0493 µM)	0.025 (≈ 0.0493 µM)	16 (≈ 31.6 µM)	8 (≈ 15.8 µM)	8 (≈ 15.8 µM)	32 (≈ 63.1 µM)	16 (≈ 31.6 µM)	8 (≈ 15.8 µM)	0.25 (≈ 0.493 µM)	0.1 (≈ 0.197 µM)	0.5 (≈ 0.986 µM)
CC(=O)c1ccc(C#Cc2ccc(CN(C)[C@H](C)[C@](O)(Cn3cncn3)c3ccc(F)cc3F)cc2)cc1	6 (≈ 0.0117 µM)	0.013 (≈ 0.0253 µM)	0.01 (≈ 0.0194 µM)	0.01 (≈ 0.0194 µM)	6 (≈ 0.0117 µM)	0.013 (≈ 0.0253 µM)	0.013 (≈ 0.0253 µM)	16 (≈ 31.1 µM)	16 (≈ 31.1 µM)	4 (≈ 7.77 µM)	16 (≈ 31.1 µM)	16 (≈ 31.1 µM)	8 (≈ 15.5 µM)	0.25 (≈ 0.486 µM)	0.1 (≈ 0.194 µM)	0.5 (≈ 0.972 µM)
CN(Cc1ccc(C#Cc2cc(F)c(Br)cc2F)cc1)CC(O)(Cn1cncn1)c1ccc(F)cc1F (configuration not stated)	6 (≈ 0.0105 µM)	0.006 (≈ 0.0105 µM)	0.03 (≈ 0.0523 µM)	0.03 (≈ 0.0523 µM)	6 (≈ 0.0105 µM)	0.006 (≈ 0.0105 µM)	0.025 (≈ 0.0436 µM)	–	–	–	–	–	–	–	–	–
C[C@@H](N(C)Cc1ccc(C#Cc2ccc(OC(F)(F)F)cc2)cc1)[C@](O)(Cn1cncn1)c1ccc(F)cc1F	13 (≈ 0.0234 µM)	0.05 (≈ 0.0898 µM)	0.03 (≈ 0.0539 µM)	0.8 (≈ 1.44 µM)	13 (≈ 0.0234 µM)	0.05 (≈ 0.0898 µM)	0.05 (≈ 0.0898 µM)	–	–	–	–	–	–	–	–	–

Now from value to compound, other results behind:

MIC80 (Candida parapsilosis) [ng/mL]	MIC80 (Candida albicans [1]) [µg/mL]	MIC80 (Nakaseomyces glabratus) [µg/mL]	MIC80 (Pichia kudriavzevii) [µg/mL]	MIC80 (Candida tropicalis) [ng/mL]	MIC80 (Candida albicans [8]) [µg/mL]	MIC80 (Cryptococcus neoformans) [µg/mL]	Structure (SMILES)	MIC80 (Candida albicans [2]) [µg/mL]	MIC80 (Candida albicans [3]) [µg/mL]	MIC80 (Candida albicans [4]) [µg/mL]	MIC80 (Candida albicans [5]) [µg/mL]	MIC80 (Candida albicans [6]) [µg/mL]	MIC80 (Candida albicans [7]) [µg/mL]	MIC80 (Candida albicans [9]) [µg/mL]	MIC80 (Aspergillus fumigatus) [µg/mL]	MIC80 (Candida albicans [10]) [µg/mL]
6 (≈ 0.0119 µM)	0.006 (≈ 0.0119 µM)	0.03 (≈ 0.0596 µM)	0.03 (≈ 0.0596 µM)	6 (≈ 0.0119 µM)	0.006 (≈ 0.0119 µM)	0.013 (≈ 0.0258 µM)	CN(Cc1ccc(C#Cc2ccc([N+](=O)[O-])cc2)cc1)CC(O)(Cn1cncn1)c1ccc(F)cc1F (configuration not stated)	–	–	–	–	–	–	–	–	–
50 (≈ 0.0999 µM)	0.013 (≈ 0.026 µM)	0.1 (≈ 0.2 µM)	0.2 (≈ 0.4 µM)	13 (≈ 0.026 µM)	0.025 (≈ 0.0499 µM)	0.025 (≈ 0.0499 µM)	CC(C)c1ccc(C#Cc2ccc(CN(C)CC(O)(Cn3cncn3)c3ccc(F)cc3F)cc2)cc1 (configuration not stated)	–	–	–	–	–	–	–	–	–
6 (≈ 0.0112 µM)	0.013 (≈ 0.0242 µM)	0.4 (≈ 0.744 µM)	0.03 (≈ 0.0558 µM)	13 (≈ 0.0242 µM)	0.006 (≈ 0.0112 µM)	0.013 (≈ 0.0242 µM)	CN(Cc1ccc(C#Cc2ccccc2Br)cc1)CC(O)(Cn1cncn1)c1ccc(F)cc1F (configuration not stated)	–	–	–	–	–	–	–	–	–
6 (≈ 0.012 µM)	0.006 (≈ 0.012 µM)	0.03 (≈ 0.0599 µM)	0.03 (≈ 0.0599 µM)	6 (≈ 0.012 µM)	0.006 (≈ 0.012 µM)	0.006 (≈ 0.012 µM)	CC(=O)c1ccc(C#Cc2ccc(CN(C)CC(O)(Cn3cncn3)c3ccc(F)cc3F)cc2)cc1 (configuration not stated)	–	–	–	–	–	–	–	–	–
6 (≈ 0.0112 µM)	0.013 (≈ 0.0242 µM)	0.03 (≈ 0.0558 µM)	0.01 (≈ 0.0186 µM)	25 (≈ 0.0465 µM)	0.013 (≈ 0.0242 µM)	0.013 (≈ 0.0242 µM)	CN(Cc1ccc(C#Cc2ccc(Br)cc2)cc1)CC(O)(Cn1cncn1)c1ccc(F)cc1F (configuration not stated)	–	–	–	–	–	–	–	–	–
13 (≈ 0.0267 µM)	0.013 (≈ 0.0267 µM)	0.1 (≈ 0.206 µM)	0.05 (≈ 0.103 µM)	13 (≈ 0.0267 µM)	0.013 (≈ 0.0267 µM)	0.025 (≈ 0.0514 µM)	CCc1ccc(C#Cc2ccc(CN(C)CC(O)(Cn3cncn3)c3ccc(F)cc3F)cc2)cc1 (configuration not stated)	–	–	–	–	–	–	–	–	–
13 (≈ 0.0275 µM)	0.013 (≈ 0.0275 µM)	0.1 (≈ 0.212 µM)	0.05 (≈ 0.106 µM)	6 (≈ 0.0127 µM)	0.006 (≈ 0.0127 µM)	0.025 (≈ 0.0529 µM)	Cc1ccccc1C#Cc1ccc(CN(C)CC(O)(Cn2cncn2)c2ccc(F)cc2F)cc1 (configuration not stated)	–	–	–	–	–	–	–	–	–
13 (≈ 0.0266 µM)	0.013 (≈ 0.0266 µM)	0.8 (≈ 1.64 µM)	0.2 (≈ 0.409 µM)	13 (≈ 0.0266 µM)	0.013 (≈ 0.0266 µM)	0.05 (≈ 0.102 µM)	COc1ccc(C#Cc2ccc(CN(C)CC(O)(Cn3cncn3)c3ccc(F)cc3F)cc2)cc1 (configuration not stated)	–	–	–	–	–	–	–	–	–
6 (≈ 0.0103 µM)	0.013 (≈ 0.0222 µM)	1.6 (≈ 2.74 µM)	0.8 (≈ 1.37 µM)	6 (≈ 0.0103 µM)	0.006 (≈ 0.0103 µM)	0.025 (≈ 0.0428 µM)	CN(Cc1ccc(C#Cc2ccccc2I)cc1)CC(O)(Cn1cncn1)c1ccc(F)cc1F (configuration not stated)	–	–	–	–	–	–	–	–	–
6 (≈ 0.0126 µM)	0.006 (≈ 0.0126 µM)	0.05 (≈ 0.105 µM)	0.01 (≈ 0.021 µM)	6 (≈ 0.0126 µM)	0.013 (≈ 0.0273 µM)	0.006 (≈ 0.0126 µM)	CN(Cc1ccc(C#Cc2cccc(F)c2)cc1)CC(O)(Cn1cncn1)c1ccc(F)cc1F (configuration not stated)	–	–	–	–	–	–	–	–	–
